# Test results: patent publication US9085555B2, “Complement pathway modulators and uses thereof” (priority 2011, dated 2015)
# Molecular target: Factor D (Homo sapiens (Human), UniProt P00746)
# Test: biochemical
# Format: biochemical
# Details: read-out: IC50
# Sequence of Factor D (P00746 26-253): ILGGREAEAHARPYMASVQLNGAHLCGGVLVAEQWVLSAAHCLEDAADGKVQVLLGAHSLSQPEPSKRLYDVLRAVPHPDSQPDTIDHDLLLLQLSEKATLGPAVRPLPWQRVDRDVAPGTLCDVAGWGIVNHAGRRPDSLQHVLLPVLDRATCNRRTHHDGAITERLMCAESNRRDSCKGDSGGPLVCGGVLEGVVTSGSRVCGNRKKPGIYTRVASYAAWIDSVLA
row,SMILES,IC50
1,"NC(=O)n1cc(NC(=O)N2CC[C@H](N)[C@H]2C(=O)NCc2cccc(Cl)c2)c2ccccc21 [Example 421, 2S,3S)-3-Amino-pyrrolidine-1,2-dicarboxylic acid 1-[(1-carbamoyl-1H-indol-3-yl)-amide]2-(3-chloro-benzylamide]",9300 nM
2,"CNC[C@@]1(F)C[C@@H](C(=O)NCc2cccc(Cl)c2F)N(C(=O)Nc2cn(C(N)=O)c3ccccc23)C1 [Example 424, 2S,4S)-4-Fluoro-4-methylaminomethyl-pyrrolidine-1,2-dicarboxylic acid 1-[(1-carbamoyl-1H-indol-3-yl)-amide]2-(3-chloro-2-fluoro-benzylamide]",68 nM
3,"CN[C@H]1C[C@@H](C(=O)NCc2cccc(Cl)c2F)N(C(=O)Nc2cn(C(N)=O)c3ccccc23)C1 [Example 425, 2S,4S)-4-Methylamino-pyrrolidine-1,2-dicarboxylic acid 1-[(1-carbamoyl-1H-indol-3-yl)-amide]2-(3-chloro-2-fluoro-benzylamide]",1230 nM
4,"COCCN[C@H]1C[C@@H](C(=O)NCc2cccc(Cl)c2F)N(C(=O)Nc2cn(C(N)=O)c3ccccc23)C1 [Example 426, 2S,4S)-4-(2-Methoxy-ethylamino)-pyrrolidine-1,2-dicarboxylic acid 1-[(1-carbamoyl-1H-indol-3-yl)-amide]2-(3-chloro-2-fluoro-benzylamide]",436 nM
5,"CN(C)[C@H]1C[C@@H](C(=O)NCc2cccc(Cl)c2F)N(C(=O)Nc2cn(C(N)=O)c3ccccc23)C1 [Example 427, 2S,4S)-4-Dimethylamino-pyrrolidine-1,2-dicarboxylic acid 1-[(1-carbamoyl-1H-indol-3-yl)-amide]2-(3-chloro-2-fluoro-benzylamide]",665 nM
6,"COC1(OC)C[C@@H](C(=O)NCc2cccc(Cl)c2F)N(C(=O)Nc2cn(C(N)=O)c3ccccc23)C1 [Example 428, S)-4,4-Dimethoxy-pyrrolidine-1,2-dicarboxylic acid 1-[(1-carbamoyl-1H-indol-3-yl)-amide]2-(3-chloro-2-fluoro-benzylamide]",478 nM
7,"NC(=O)n1cc(NC(=O)N2C[C@@H](N)[C@H](O)[C@H]2C(=O)NCc2cccc(Cl)c2F)c2ccccc21 [Example 429, 2S,3S,4R)-4-Amino-3-hydroxy-pyrrolidine-1,2-dicarboxylic acid 1-[(1-carbamoyl-1H-indol-3-yl)-amide]2-(3-chloro-2-fluoro-benzylamide]",1040 nM
8,"NC(=O)n1cc(NC(=O)N2C[C@@H](N)[C@H](F)[C@H]2C(=O)NCc2cccc(Cl)c2F)c2ccccc21 [Example 430, 2R,3S,4R)-4-Amino-3-fluoro-pyrrolidine-1,2-dicarboxylic acid 1-[(1-carbamoyl-1H-indol-3-yl)-amide]2-(3-chloro-2-fluoro-benzylamide]",58 nM
9,"NC(=O)n1cc(NC(=O)N2C[C@H](F)[C@@H](N)[C@H]2C(=O)NCc2cccc(Cl)c2F)c2ccccc21 [Example 431, 2S,3S,4S)-3-Amino-4-fluoro-pyrrolidine-1,2-dicarboxylic acid 1-[(1-carbamoyl-1H-indol-3-yl)-amide]2-(3-chloro-2-fluorobenzylamide]",31 nM
10,NC(=O)n1cc(NC(=O)N2NCC[C@H]2C(=O)NCc2cccc(Cl)c2F)c2ccccc21 [Example 432],7 nM
11,NC(=O)n1cc(NC(=O)N2NCC[C@@H]2C(=O)NCc2cccc(Cl)c2F)c2ccccc21 [Example 433],1790 nM
12,"NC(=O)n1cc(NC(=O)N2NCCC2C(=O)NCc2cccc(Cl)c2)c2ccccc21 (stereo not drawn) [Example 434, Pyrazolidine-1,5-dicarboxylic acid 1-[(1-carbamoyl-1H-indol-3-yl)-amide]5-(3-chloro-benzylamide)]",35 nM
13,"COC(=O)[C@H]1C[C@@H](C(=O)Nc2cccc(OC(F)(F)F)c2F)N(C(=O)Nc2cn(C(N)=O)c3ccccc23)C1 [Example 435, (3S,5S)-1-(1-Carbamoyl-1H-indol-3-ylcarbamoyl)-5-(2-fluoro-3-trifluoromethoxy-phenylcarbamoyl)-pyrrolidine-3-carboxylic acid methyl ester]",250 nM
14,"NC(=O)n1cc(NC(=O)N2C[C@@H](CO)C[C@H]2C(=O)NCc2c(F)ccc(Cl)c2F)c2ccccc21 [Example 436, 2S,4S)-4-Hydroxymethyl-pyrrolidine-1,2-dicarboxylic acid 1-[(1-carbamoyl-1H-indol-3-yl)-amide]2-(3-chloro-2,6-difluoro-benzylamide]",150 nM
15,"NC(=O)c1cc(Br)cc(NC(=O)[C@@H]2C[C@@H](F)CN2C(=O)Nc2cn(C(N)=O)c3ccccc23)c1 [Example 437, (2S,4R)-4-Fluoro-pyrrolidine-1,2-dicarboxylic acid 2-[(3-bromo-5-carbamoyl-phenyl)-amide]1-[(1-carbamoyl-1H-indol-3-yl)-amide]]",107 nM
16,"COCCNC(=O)c1cc(Cl)c(F)c(CNC(=O)[C@@H]2C[C@@H](F)CN2C(=O)Nc2cn(C(N)=O)c3ccccc23)c1 [Example 438, (2S,4R)-4-Fluoro-pyrrolidine-1,2-dicarboxylic acid 1-[(1-carbamoyl-1H-indol-3-yl)-amide]2-[3-chloro-2-fluoro-5-(2-methoxy-ethylcarbamoyl)-benzylamide]]",924 nM
17,"CC(C)c1cc(NC(=O)[C@@H]2CCCN2C(=O)Nc2cn(C(N)=O)c3ccccc23)on1 [Example 439, (S)-Pyrrolidine-1,2-dicarboxylic acid 1-[(1-carbamoyl-1H-indol-3-yl)-amide]2-[(3-isopropyl-isoxazol-5-yl)-amide]]",1250 nM
18,"NC(=O)n1cc(NC(=O)N2CCC[C@H]2C(=O)Nc2cc(-c3ccccc3)no2)c2ccccc21 [Example 440, (S)-Pyrrolidine-1,2-dicarboxylic acid 1-[(1-carbamoyl-1H-indol-3-yl)-amide]2-[(3-phenyl-isoxazol-5-yl)-amide]]",1050 nM
19,"NC(=O)n1cc(CC(=O)N2CCC[C@H]2C(=O)Nc2cccc(OC(F)(F)F)c2)c2ccccc21 [Example 441, 3-{2-[(S)-2-(3-trifluoromethoxy-phenylcarbamoyl)-pyrrolidin-1-yl]-2-oxo-ethyl}-indole-1-carboxylic acid amide]",5620 nM
20,"NC(=O)n1cc(CC(=O)N2C[C@H](F)C[C@H]2C(=O)Nc2cccc(OC(F)(F)F)c2F)c2ccccc21 [Example 442, 3-{2-[(2S,4R)-4-Fluoro-2-(2-fluoro-3-trifluoromethoxy-phenylcarbamoyl)-pyrrolidin-1-yl]-2-oxo-ethyl}-indole-1-carboxylic acid amide]",850 nM
21,"NC(=O)n1cc(CC(=O)N2C[C@@H]3C[C@@H]3[C@H]2C(=O)N[C@H](CO)c2cccc(Cl)c2F)c2ccccc21 [Example 443, 3-(2-{(1S,2S,5R)-2-[(S)-1-(3-Chloro-2-fluoro-phenyl)-2-hydroxy-ethylcarbamoyl]-3-azabicyclo[3.1.0]hex-3-yl}-2-oxo-ethyl)-indole-1-carboxylic acid amide]",4470 nM
22,"NC(=O)n1cc(CC(=O)N2CC[C@@H](O)[C@H]2C(=O)NCc2cccc(Cl)c2F)c2ccccc21 [Example 444, 3-{2-[(2S,3R)-2-(3-Chloro-2-fluoro-benzylcarbamoyl)-3-hydroxy-pyrrolidin-1-yl]-2-oxo-ethyl}-indole-1-carboxylic acid amide]",243 nM
23,"CN(C)C[C@@]1(F)C[C@@H](C(=O)NCc2cccc(Cl)c2F)N(C(=O)Cc2cn(C(N)=O)c3ccccc23)C1 [Example 445, 3-{2-[(2S,4S)-2-(3-Chloro-2-fluoro-benzylcarbamoyl)-4-dimethylaminomethyl-4-fluoro-pyrrolidin-1-yl]-2-oxo-ethyl}-indole-1-carboxylic acid amide]",580 nM
24,"NC(=O)n1cc(CC(=O)N2[C@@H]3C[C@@H]3C[C@H]2C(=O)NCc2cccc(Cl)c2F)c2ccccc21 [Example 446, 3-{2-[(1R,3S,5R)-3-(3-Chloro-2-fluoro-benzylcarbamoyl)-2-aza-bicyclo[3.1.0]hex-2-yl]-2-oxo-ethyl}-indole-1-carboxylic acid amide]",16 nM
25,"NC(=O)n1cc(CC(=O)N2C[C@H](F)C[C@H]2C(=O)NCc2cccc(Cl)c2F)c2ccccc21 [Example 448, 3-{2-[(2S,4R)-2-(3-Chloro-2-fluoro-benzylcarbamoyl)-4-fluoro-pyrrolidin-1-yl]-2-oxo-ethyl}-indole-1-carboxylic acid amide]",26 nM
26,"NC(=O)n1cc(CC(=O)N2[C@@H]3C[C@@H]3C[C@H]2C(=O)N[C@H](CO)c2cccc(Cl)c2F)c2ccccc21 [Example 449, 3-(2-{(1R,3S,5R)-3-[(S)-1-(3-Chloro-2-fluoro-phenyl)-2-hydroxy-ethylcarbamoyl]-2-aza-bicyclo[3.1.0]hex-2-yl}-2-oxo-ethyl)-indole-1-carboxylic acid amide]",51 nM
27,"NC(=O)n1cc(CC(=O)N2CCS[C@H]2C(=O)NCc2cccc(Cl)c2F)c2ccccc21 [Example 450, 3-{2-[(S)-2-(3-Chloro-2-fluoro-benzylcarbamoyl)-thiazolidin-3-yl]-2-oxo-ethyl}-indole-1-carboxylic acid amide]",25 nM
28,"NC(=O)n1cc(CC(=O)N2C[C@@](F)(CO)C[C@H]2C(=O)NCc2cccc(Cl)c2F)c2ccccc21 [Example 451, 3-{2-[(2S,4R)-2-(3-Chloro-2-fluoro-benzylcarbamoyl)-4-fluoro-4-hydroxymethyl-pyrrolidin-1-yl]-2-oxo-ethyl}-indole-1-carboxylic acid amide]",90 nM
29,"COc1ccc2c(c1)c(CC(=O)N1C3CC3C[C@H]1C(=O)NCc1cccc(Cl)c1F)cn2C(N)=O (stereo partly drawn) [Example 452, 3-{2-[(1R,3S,5R)-3-(3-Chloro-2-fluoro-benzylcarbamoyl)-2-aza-bicylo[3.1.0]hex-2-yl]-2-oxo-ethyl}-5-methoxy-indole-1-carboxylic acid amide]",15 nM
30,"NC(=O)n1cc(CC(=O)N2[C@@H]3C[C@@H]3C[C@H]2C(=O)NCc2cccc(Cl)c2F)c2cc(OCCO)ccc21 [Example 453, 3-{2-[(1R,3S,5R)-3-(3-Chloro-2-fluoro-benzylcarbamoyl)-2-aza-bicyclo[3.1.0]hex-2-yl]-2-oxo-ethyl}-5-(2-hydroxy-ethoxy)-indole-1-carboxylic acid amide]",13 nM
